Laboratory results taken from patent US6720346B2, “Thiazole benzamide derivatives and pharmaceutical compositions for inhibiting cell proliferation” (Agouron Pharmaceuticals, Inc., priority 2001, dated 2004).
Structures can show the parent of a compound that is named as a salt.

How the values were obtained:
HCT-116 cell line = experiment: Inhibition of cell growth, MTT tetrazolium salt assay; type: cell-based; settings: Homo sapiens, HCT-116, 120 h; MTT, three to five days
Experimental: Inhibition of cell growth was measured using the tetrazolium salt assay, which is based on the ability of viable cells to reduce 3-(4,5-dimethylthiazol-2-yl)-2,5-[2H]-diphenyltetrazolium bromide (MTT) to formazan (Mossman, Journal of Immunological Methods, 65, (1983), pp. 55-58). The water-insoluble purple formazan product was then detected spectrophotometrically. The HCT-116 cell line was used as a representative cancer cell line and grown in 96-well plates. Cells were plated in McCoy's 5A Medium at a volume of 135 μl/well. Plates were incubated for four hours before addition of inhibitor compounds. Different concentrations of inhibitor compounds were added in 0.5% (v/v) dimethylsulfoxide (15 μL/well), and cells were incubated at 37° C. (5% CO2) for three to five days. At the end of the incubation, MTT was added to a final concentration of 0.2 mg/mL, and cells were incubated for 4 hours more at 37° C. After centrifugation of the plates and removal of medium, the absorbance of the formazan (solubilized in dimethylsulfoxide) was measured at 540 nm. The concentration of inhibitor compound causing 50% (IC50) or 90% ([…]) inhibition of growth was determined from the linear portion of a semi-log plot of inhibitor concentration versus percent inhibition. All results were compared to control cells treated only with 0.5% (v/v) dimethylsulfoxide.

human CDK4/cyclin D3 = molecular target: T1, human CDK4/cyclin D3 (Homo sapiens, UniProt P11802); experiment: Inhibition of CDK4/cyclin D retinoblastoma kinase activity (Ki; % inhibition); type: biochemical; settings: apparent Ki, CDK4/cyclin D3, Rb substrate
T1 construct: made in house; host or cells: insect cells co-infected with baculovirus vectors
T1 sequence (P11802 whole entry): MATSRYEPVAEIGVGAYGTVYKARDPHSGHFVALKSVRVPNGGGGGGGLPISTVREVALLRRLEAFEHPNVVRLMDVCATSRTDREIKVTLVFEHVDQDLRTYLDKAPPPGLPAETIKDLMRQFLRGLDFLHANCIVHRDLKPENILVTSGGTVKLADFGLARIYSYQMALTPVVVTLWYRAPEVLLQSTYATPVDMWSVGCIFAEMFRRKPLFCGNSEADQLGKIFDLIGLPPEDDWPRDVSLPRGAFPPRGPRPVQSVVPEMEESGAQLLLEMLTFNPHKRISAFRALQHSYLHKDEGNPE
T1 sequence (P30281 1-264 partner limits assumed): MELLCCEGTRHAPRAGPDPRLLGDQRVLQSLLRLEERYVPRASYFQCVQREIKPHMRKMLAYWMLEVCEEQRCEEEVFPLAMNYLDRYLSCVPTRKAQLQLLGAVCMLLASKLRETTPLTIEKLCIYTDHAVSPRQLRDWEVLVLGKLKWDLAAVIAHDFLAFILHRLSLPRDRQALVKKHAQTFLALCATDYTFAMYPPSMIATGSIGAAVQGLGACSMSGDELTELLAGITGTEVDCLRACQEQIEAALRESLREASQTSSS
Experimental: (§1) Cyclin-dependent kinase activity was measured by quantifying the enzyme-catalyzed, time-dependent incorporation of radioactive phosphate from [^32P]ATP or [^33P]ATP into a protein substrate. Unless noted otherwise, assays were performed in 96-well plates in a total volume of 50 μL, in the presence of 10 mM HEPES (N-[2-hydroxyethyl]piperazine-N′-[2-ethanesulfonic acid]) (pH 7.4), 10 mM MgCl2, 25 μM adenosine triphosphate (ATP), 1 mg/mL ovalbumin, 5 μg/mL leupeptin, 1 mM dithiothreitol, 10 mM β-glycerophosphate, 0.1 mM sodium vanadate, 1 mM sodium fluoride, 2.5 mM ethylene glycol-bis(β-aminoethyl ether)-N,N,N′N′-tetraacetic acid (EGTA), 2% (v/v) dimethylsulfoxide, and 0.03-0.4 μCi [^32/33P]ATP per reaction. Reactions were initiated with enzyme, incubated at 30° C., and terminated after 20 minutes by the addition of ethylenediaminetetraacetic acid (EDTA) to 250 mM. The phosphorylated substrate was then captured on a nitrocellulose or phosphocellulose membrane using a 96-well filtration manifold, and unincorporated radioactivity was removed by repeated washing with 0.85% phosphoric acid. Radioactivity was quantified by exposing the dried membranes to a phosphorimager.
(§2) Compounds from combinatorial libraries were screened from 96-well plates for % inhibition of CDK activity at 30 nM theoretical compound concentration. Inhibition was measured relative to control wells that contained all reaction components including 2% (v/v) DMSO but no compound, after subtraction of background radioactivity measured in the absence of enzyme. Apparent Ki values of discrete compounds were measured by assaying enzyme activity in the presence of different inhibitor compound concentrations and subtracting the background radioactivity measured in the absence of enzyme. The kinetic parameters (kcat, Km for ATP) were measured for each enzyme under the usual assay conditions by determining the dependence of initial rates on ATP concentration. Inhibition data were fit to an equation for competitive inhibition using Kaleidagraph (Synergy Software), or were fit to an equation for competitive tight-binding inhibition using the software KineTic (BioKin, Ltd.).
A complex of human CDK4 and genetically truncated (1-264) cyclin D3 was purified using traditional biochemical chromatographic techniques from insect cells that had been co-infected with the corresponding baculovirus expression vectors (see e.g., Meijer and Kim, “Chemical Inhibitors of Cyclin-Dependent Kinases,” Methods in Enzymol., 283 (1997), pp. 113-128.). The enzyme complex (5 nM) was assayed with 0.3-0.5 μg of purified recombinant retinoblastoma protein fragment (Rb) as a substrate. The engineered Rb fragment (residues 386-928 of the native retinoblastoma protein; 62.3 kDa) contains the majority of the phosphorylation sites found in the native 106-kDa protein, as well as a tag of six histidine residues for ease of purification. Phosphorylated Rb substrate was captured by microfiltration on a nitrocellulose membrane and quantified using a phosphorimager as described above. For measurement of tight-binding inhibitors, the assay duration was extended to 60 minutes, during which the time-dependence of product formation was linear and initial rate conditions were met.

CDK2/cyclin A = molecular target: T2, CDK2/cyclin A (Homo sapiens, UniProt P24941); experiment: Inhibition of CDK2/cyclin A retinoblastoma kinase activity (Ki; % inhibition); type: biochemical; settings: apparent Ki, CDK2/cyclin A, Rb substrate
T2 construct: made in house; host or cells: CDK2: insect cells (baculovirus); cyclin A: E. coli
Experimental: as §1, §2
CDK2 was purified using published methodology (Rosenblatt et al., “Purification and Crystallization of Human Cyclin-dependent Kinase 2,” J. Mol. Biol., 230, 1993, pp. 1317-1319) from insect cells that had been infected with a baculovirus expression vector. […] A complex of CDK2 and proteolyzed cyclin A was prepared and purified by gel filtration. The substrate for this assay was the same Rb substrate fragment used for the CDK4 assays, and the methodology of the CDK2/delta cyclin A and the CDK4/delta cyclin D3 assays was essentially the same, except that CDK2 was present at 10 nM or 19 nM. The duration of the assay was 60 or 75 minutes, during which the time-dependence of product formation was linear and initial rate conditions were met.

Row | SMILES | IC50 (HCT-116 cell line) [nM] | Ki (human CDK4/cyclin D3) [nM] | Ki (CDK2/cyclin A) [nM]
1 | Nc1nc(Nc2ccc(C(=O)NCCc3cccs3)cc2)sc1C(=O)c1c(F)cccc1F [Example A26, 4-[4-Amino-5-(2,6-difluoro-benzoyl)-thiazol-2-ylamino]-N-(2-thiophen-2-yl-ethyl)-benzamide] | 170 | 20 | 79
2 | Nc1nc(Nc2ccc(C(=O)NCCc3ccncc3)cc2)sc1C(=O)c1c(F)cccc1F [Example A29, 4-[4-Amino-5-(2,6-difluoro-benzoyl)-thiazol-2-ylamino]-N-(2-pyridin-4-yl-ethyl)-benzamide] | 220 | 26 | 52
3 | CN1CC[C@@H](NC(=O)c2ccc(Nc3nc(N)c(C(=O)c4c(F)cccc4F)s3)cc2)C1 [Example A30, 4-[4-Amino-5-(2,6-difluoro-benzoyl)-thiazol-2-ylamino]-N-(1-methyl-pyrrolidin-3R-yl)-benzamide] | 90 | 7 | 69
4 | CN1CC[C@H](NC(=O)c2ccc(Nc3nc(N)c(C(=O)c4c(F)cccc4F)s3)cc2)C1 [Example A32, 4-[4-Amino-5-(2,6-difluoro-benzoyl)-thiazol-2-ylamino]-N-(1-methyl-pyrrolidin-3S-yl)-benzamide] | 280 | 6 | 77
5 | Nc1nc(Nc2ccc(C(=O)NCC3CCCCN3)cc2)sc1C(=O)c1c(F)cccc1F (stereo not drawn) [Example A33, 4-[4-Amino-5-(2,6-difluoro-benzoyl)-thiazol-2-ylamino]-N-(piperidin-2RS-ylmethyl)-benzamide Trifluoroacetate Salt] | 2200 | 10 | 91
6 | CN1CCC[C@@H]1CNC(=O)c1ccc(Nc2nc(N)c(C(=O)c3c(F)cccc3F)s2)cc1 [Example A34, 4-[4-Amino-5-(2,6-difluoro-benzoyl)-thiazol-2-ylamino]-N-(1-methyl-pyrrolidin-2R-ylmethyl)-benzamide] | 140 | 10 | 99
7 | Nc1nc(Nc2ccc(C(=O)NCCN3CCCC3)cc2)sc1C(=O)c1c(F)cccc1F [Example A35, 4-[4-Amino-5-(2,6-difluoro-benzoyl)-thiazol-2-ylamino]-N-(2-pyrrolidin-1-yl-ethyl)-benzamide] | 120 | 6 | 54
8 | C[C@@H](CN(C)C)N(C)C(=O)c1ccc(Nc2nc(N)c(C(=O)c3c(F)cccc3F)s2)cc1 [Example A36, 4-[4-Amino-5-(2,6-difluoro-benzoyl)-thiazol-2-ylamino]-N-(2-dimethylamino-1S-methyl-ethyl)-N-methyl-benzamide] | 780 | 44 | 223
9 | CCN1CCC[C@H]1CNC(=O)c1ccc(Nc2nc(N)c(C(=O)c3c(F)cccc3F)s2)cc1 [Example A38, 4-[4-Amino-5-(2,6-difluoro-benzoyl)-thiazol-2-ylamino]-N-(1-ethyl-pyrrolidin-2S-yl-methyl)-benzamide] | 100 | 24 | 140
10 | CN(CC1CC1)C(C)(C)CNC(=O)c1ccc(Nc2nc(N)c(C(=O)c3c(F)cccc3F)s2)cc1 [Example A39] | 170 | 11 | 160
11 | C[C@H](CN(C)C)NC(=O)c1ccc(Nc2nc(N)c(C(=O)c3c(F)cccc3F)s2)cc1 [Example A40, 4-[4-Amino-5-(2,6-difluoro-benzoyl)-thiazol-2-ylamino]-N-(2-dimethylamino-1R-methyl-ethyl)-benzamide Dihydrochloride] | 40 | 9 | 94
12 | C[C@@H](CN(C)C)NC(=O)c1ccc(Nc2nc(N)c(C(=O)c3c(F)cccc3F)s2)cc1 [Example A41] | 180 | 35 | 230
13 | C[C@@H](CNC(=O)c1ccc(Nc2nc(N)c(C(=O)c3c(F)cccc3F)s2)cc1)N(C)C [Example A42, 4-[4-Amino-5-(2,6-difluoro-benzoyl)-thiazol-2-ylamino]-N-(2S-dimethylamino-propyl)-benzamide] | 150 | 23 | 165
14 | CN1CCCC[C@H]1CNC(=O)c1ccc(Nc2nc(N)c(C(=O)c3c(F)cccc3F)s2)cc1 [Example A43, 4-[4-Amino-5-(2,6-difluoro-benzoyl)-thiazol-2-ylamino]-N-(1-methyl-piperidin-2S-yl-methyl)-benzamide] | 580 | 13 | 109
15 | Nc1nc(Nc2ccc(C(=O)NCCN3CC=CC3)cc2)sc1C(=O)c1c(F)cccc1F [Example A45, 4-[4-Amino-5-(2,6-difluoro-benzoyl)-thiazol-2-ylamino]-N-[2-(2,5-dihydro-pyrrol-1-yl)-ethyl]-benzamide Dihydrochloride Salt] | 86 | 7 | 48
16 | C[C@H](CN1CCCCC1)NC(=O)c1ccc(Nc2nc(N)c(C(=O)c3c(F)cccc3F)s2)cc1 [Example A46, 4-[4-Amino-5-(2,6-difluoro-benzoyl)-thiazol-2-ylamino]-N-(1R-methyl-2-piperidin-1-yl-ethyl)-benzamide Trifluoroacetate Salt] | 86 | 15 | 220
17 | CC(C)[C@H](CN(C)C)NC(=O)c1ccc(Nc2nc(N)c(C(=O)c3c(F)cccc3F)s2)cc1 [Example A47, 4-[4-Amino-5-(2,6-difluoro-benzoyl)-thiazol-2-ylamino]-N-(1R-dimethylaminomethyl-2-methyl-propyl)-benzamide] | 580 | 5 | 55
18 | CC1(C)CCC(CNC(=O)c2ccc(Nc3nc(N)c(C(=O)c4c(F)cccc4F)s3)cc2)N1 (stereo not drawn) [Example A48, 4-[4-Amino-5-(2,6-difluoro-benzoyl)-thiazol-2-ylamino]-N-(5,5-dimethyl-pyrrolidin-2RS-yl-methyl)-benzamide Hydrochloride Salt] | 580 | 5 | 55
19 | Nc1nc(Nc2ccc(C(=O)NCc3nccs3)cc2)sc1C(=O)c1c(F)cccc1F [Example A49, 4-[4-Amino-5-(2,6-difluoro-benzoyl)-thiazol-2-ylamino]-N-(thiazol-2-yl-methyl)-benzamide Hydrochloride] | 320 | 11 | 260
20 | Cn1ccnc1CNC(=O)c1ccc(Nc2nc(N)c(C(=O)c3c(F)cccc3F)s2)cc1 [Example A50, 4-[4-Amino-5-(2,6-difluoro-benzoyl)-thiazol-2-ylamino]-N-(1-methyl-1H-imidazol-2-ylmethyl)-benzamide Hydrochloride Salt] | 170 | 15 | 20
